These are literature values, as cited in US20240050950A1, “GRADIENT-BASED MICROFLUIDIC CIRCUIT, DEVICE, AND METHOD FOR PERFORMING AN ASSAY” (priority 2020, published 2024).

Where two headings read alike, the source gives them in different places. Numbered stars: 1 amine (or outer) side, 2 acyl side, 3 side chain; on linkers, the order of the positions; unused ones are H or OH. Bridge positions count the residues as written; N and C are the ends. Square brackets hold non-standard residues; d marks the D form. Peptide text beside a SMILES is read from it. X1 = CC(C)CCCCCCCCC[C@H](CC(=O)[*:1])O[*:2]

For the series the following is noted: cited from earlier work.
Where [1] appears, read: Table 1, antimicrobial agents/drugs.
Setting [2] is: Table 3, antifungal drugs and other molecules.

As for `CC[C@H]1OC(=O)[C@H](C)[C@@H](O[C@H]2C[C@@](C)(OC)[C@@H](O)[C@H](C)O2)[C@H](C)[C@@H](O[C@@H]2O[C@H](C)C[C@H](N(C)C)[C@H]2O)[C@](C)(O)C[C@@H](C)/C(=N\OCOCCOC)[C@H](C)[C@@H](O)[C@]1(C)O` [Roxithromycin], under setting [1], the Molar volume is 666.3 ± 7.0 cm^3.
`N#CC[C@H](C1CCCC1)n1cc(-c2ncnc3[nH]ccc23)cn1` [Ruxolitinib phosphate]: the Molar volume (Table 2, anticancer drugs) is given as 218.6 ± 7.0 cm^3.
As to `CC[C@@H](C(=O)[C@@H](C)[C@@H](O)[C@H](C)[C@@H]1O[C@@H]([C@@H](CC)C(=O)O)CC[C@@H]1C)[C@H]1O[C@]2(C=C[C@@H](O)[C@]3(CC[C@@](C)([C@H]4CC[C@](O)(CC)[C@H](C)O4)O3)O2)[C@H](C)C[C@@H]1C` [Salinomycin], the Molar volume under setting [1] is 633.5 ± 5.0 cm^3.
As for `C/C=C/C=C/C(=O)O` [Sorbic acid], the Molar volume under setting [1] was 109.4 ± 3.0 cm^3.
`CO[C@H]1[C@@H](O)[C@H](O)[C@H](OC[C@@]23C[C@@H]4[C@H](C)CC[C@H]4[C@@]4(C=O)CC2C=C(C(C)C)[C@@]34C(=O)O)O[C@@H]1C` [Sordarin]: the Molar volume under setting [1] is recorded as 381.1 ± 5.0 cm^3.
For the compound `C[C@@H]1CN(c2c(F)c(N)c3c(=O)c(C(=O)O)cn(C4CC4)c3c2F)C[C@H](C)N1` [Sparfloxacin], the Molar volume under setting [1] was 273.2 ± 3.0 cm^3.
Regarding `CN[C@@H]1[C@H](O)[C@H](NC)[C@H]2O[C@@]3(O)C(=O)C[C@@H](C)O[C@H]3O[C@@H]2[C@H]1O` [Spectinomycin], under setting [1], the Molar volume is recorded as 231.6 ± 5.0 cm^3.
Regarding `N=C(N)NCCCC[C@H](O)CC(=O)NC(O)C(=O)NCCCCNCCCN` (stereo partly drawn) [Spergualin], under setting [1], the Molar volume is on record as 304.4 ± 7.0 cm^3.
As for `CN[C@@H]1C[C@H]2O[C@@](C)([C@@H]1OC)n1c3ccccc3c3c4c(c5c6ccccc6n2c5c31)C(=O)NC4` [Staurosporine (Staurosporine), Staurosporine], the Molar volume under setting [1] is reported as 298.7 ± 7.0 cm^3.
Consider `[H]/N=C(/N)N[C@H]1[C@H](O)[C@@H](O)[C@H](O[C@@H]2O[C@@H](C)[C@](O)(C=O)[C@H]2O[C@@H]2O[C@@H](CO)[C@H](O)[C@@H](O)[C@@H]2NC)[C@@H](N/C(N)=N\[H])[C@@H]1O` [Streptomycin], for which, under setting [1], the Molar volume is on record as 293.4 ± 7.0 cm^3.
With `COC1=C(N)C(=O)c2nc(-c3nc(C(=O)O)c(C)c(-c4ccc(OC)c(OC)c4O)c3N)ccc2C1=O` [Streptonigrin (Bruneomycin, Nigrin), Streptonigrin], under setting [1], the Molar volume is 322.2 ± 5.0 cm^3.
`CC(C)CCCCCCCCC[C@@H]1CC(=O)N[C@@H](CCC(=O)O)C(=O)N[C@@H](CC(C)C)C(=O)N[C@H](CC(C)C)C(=O)N[C@@H](C(C)C)C(=O)N[C@@H](CC(=O)O)C(=O)N[C@H](CC(C)C)C(=O)N[C@@H](CC(C)C)C(=O)O1` [Surfactin] (EL[dL]VD[dL]L; linker N-C via X1): the Molar volume under setting [2] is reported as 998.6 ± 3.0 cm^3.
For `Nc1nc2nc[nH]c2c(=S)[nH]1` [Tabloid (Thioguanine), Thioguanine], the Molar volume (Table 2, anticancer drugs) is reported as 96.4 ± 3.0 cm^3.
Consider `CO[C@H]1C[C@@H]2CC[C@@H](C)[C@@](O)(O2)C(=O)C(=O)N2CCCC[C@H]2C(=O)O[C@H]([C@H](C)C[C@@H]2CC[C@@H](OC(=O)C(C)(CO)CO)[C@H](OC)C2)CC(=O)[C@H](C)/C=C(\C)[C@@H](O)[C@@H](OC)C(=O)[C@H](C)C[C@H](C)/C=C/C=C/C=C/1C` [Temsirolimus (Torisel), Temsirolimus], for which the Molar volume (Table 2, anticancer drugs) was 853.1 ± 5.0 cm^3.
As to `CN(C/C=C/C#CC(C)(C)C)Cc1cccc2ccccc12` [Terbinafine], under setting [2], the Molar volume is reported as 289.1 cm^3.
Consider `CC(C)N1CCN(c2ccc(OCC3COC(Cn4cncn4)(c4ccc(Cl)cc4Cl)O3)cc2)CC1` (stereo not drawn) [Terconazole], for which, under setting [2], the Molar volume is recorded as 391.5 ± 7.0 cm^3.
In the case of `O=C1CCC(N2C(=O)c3ccccc3C2=O)C(=O)N1` (stereo not drawn) [Thalidomide], the Molar volume (Table 2, anticancer drugs) was 171.7 ± 3.0 cm^3.
For `Cc1ccc(C(C)C)c(O)c1` [Thymol (5-Methyl-2-isopropylphenol), 5-Methyl-2-isopropylphenol], the Molar volume under setting [2] is on record as 150.2 cm^3.
